In brackets after ≈: the same amount, converted by molar mass. Like-named read-outs stand apart in the source and are kept apart here.
How the values were obtained:
[1] = tested on: methicillin-sensitive Staphylococcus aureus; test: MIC by broth micro-dilution (CLSI), methicillin-sensitive S. aureus; format: cell-based; conditions: MSSA S. aureus ATCC29213
[2] = tested on: carbapenem sensitive Escherichia coli; test: MIC by broth micro-dilution (CLSI), carbapenem sensitive E. coli; format: cell-based
[3] = tested on: carbapenemase producing K. pneumoniae; test: MIC by broth micro-dilution (CLSI), carbapenemase producing K. pneumoniae; format: cell-based, Klebsiella pneumoniae
[4] = tested on: carbapenem sensitive Pseudomonas aeruginosa; test: MIC by broth micro-dilution (CLSI), carbapenem sensitive P. aeruginosa; format: cell-based
[5] = tested on: extended spectrum β lactamase (ESBL) SHV18 producing Klebsiella pneumoniae; test: MIC by broth micro-dilution (CLSI), ESBL SHV18 producing K. pneumoniae; format: cell-based; conditions: ESBL +ve (SHV-18) K. pneumoniae ATCC700603
[6] = Staphylococcus aureus, ATCC 29213 / MSSA, read-out: MIC
[7] = Escherichia coli, ATCC25922, ESBL −ve E. coli ATCC25922, read-out: MIC
[8] = Klebsiella pneumoniae, ATCCBAA1705, KPC-2 K. pneumoniae ATCC BAA-1705, read-out: MIC
[9] = Pseudomonas aeruginosa, ATCC27853, Meropenem susceptible P. aeruginosa ATCC27853, read-out: MIC
[10] = Klebsiella pneumoniae, ATCC700603, 22 h, read-out: MIC

| MIC [1, 6] [µg/mL] | MIC [2, 7] [µg/mL] | MIC [3, 8] [µg/mL] | MIC [4, 9] [µg/mL] | MIC [5, 10] [µg/mL] | MIC [1] [µg/mL] | MIC ([2]; ESBL −ve E. coli ATCC25922) [µg/mL] | MIC ([3]; KPC-2 K. pneumoniae ATCC BAA-1705) [µg/mL] | MIC ([4]; Meropenem susceptible P. aeruginosa ATCC27853) [µg/mL] | MIC [5] [µg/mL] | SMILES |
| --- | --- | --- | --- | --- | --- | --- | --- | --- | --- | --- |
| 32 (≈ 57.6 µM) | 8 (≈ 14.4 µM) | > 128 | > 128 | > 128 |  |  |  |  |  | C[C@@H](NS(=O)(=O)C(F)(F)F)[C@H]1C(=O)N2C(C(=O)O)=C(S[C@@H]3CN[C@H](C(=O)N4CC[C@@H](N)C4)C3)[C@H](C)[C@H]12 [Example 204] |
| 32 (≈ 61.5 µM) | 1 (≈ 1.92 µM) | 4 (≈ 7.68 µM) | 8 (≈ 15.4 µM) | 2 (≈ 3.84 µM) |  |  |  |  |  | C[C@@H](NC(=O)[C@@H]1CCCN1)[C@H]1C(=O)N2C(C(=O)O)=C(S[C@@H]3CN[C@H](C(=O)N4CC[C@@H](N)C4)C3)[C@H](C)[C@H]12 [Example 205] |
| 64 (≈ 123 µM) | 4 (≈ 7.68 µM) | 4 (≈ 7.68 µM) | 4 (≈ 7.68 µM) | 4 (≈ 7.68 µM) |  |  |  |  |  | C[C@@H](NC(=O)[C@H]1CCCN1)[C@H]1C(=O)N2C(C(=O)O)=C(S[C@@H]3CN[C@H](C(=O)N4CC[C@@H](N)C4)C3)[C@H](C)[C@H]12 [Example 206] |
| 2 (≈ 3.94 µM) | 2 (≈ 3.94 µM) | 8 (≈ 15.8 µM) | > 128 | 8 (≈ 15.8 µM) |  |  |  |  |  | C[C@H]([C@H]1C(=O)N2C(C(=O)O)=C(SC3CN[C@H](C(=O)N4CCNCC4)C3)[C@H](C)[C@H]12)n1cc(CF)nn1 (stereo partly drawn) [Example 207] |
| 64 (≈ 134 µM) | 4 (≈ 8.38 µM) | 8 (≈ 16.8 µM) | > 128 | 8 (≈ 16.8 µM) |  |  |  |  |  | CNCc1cn([C@H](C)[C@H]2C(=O)N3C(C(=O)O)=C(SC4CN[C@H](C(=O)N(C)C)C4)[C@H](C)[C@H]23)nn1 (stereo partly drawn) [Example 208] |
| 2 (≈ 3.96 µM) | 0.5 (≈ 0.991 µM) | 2 (≈ 3.96 µM) | 64 (≈ 127 µM) | 2 (≈ 3.96 µM) |  |  |  |  |  | C[C@@H](NC(=O)C(F)F)[C@H]1C(=O)N2C(C(=O)O)=C(S[C@@H]3CN[C@H](C(=O)N4CC[C@@H](F)C4)C3)[C@H](C)[C@H]12 [Example 209] |
|  |  |  |  |  | 2 (≈ 3.96 µM) | 1 (≈ 1.98 µM) | 4 (≈ 7.93 µM) | 64 (≈ 127 µM) | 4 (≈ 7.93 µM) | C[C@@H](NC(=O)C(F)F)[C@H]1C(=O)N2C(C(=O)O)=C(S[C@@H]3CN[C@H](C(=O)N4CC[C@@H](F)C4)C3)[C@H](C)[C@H]12 [Example 210] |
| 2 (≈ 3.85 µM) | 1 (≈ 1.92 µM) | 4 (≈ 7.7 µM) | 16 (≈ 30.8 µM) | 4 (≈ 7.7 µM) |  |  |  |  |  | C[C@@H](NC(=O)C(F)F)[C@H]1C(=O)N2C(C(=O)O)=C(S[C@@H]3CN[C@H](C(=O)N4C[C@H](N)[C@@H](F)C4)C3)[C@H](C)[C@H]12 [Example 211] |
| 1 (≈ 1.64 µM) | 0.5 (≈ 0.82 µM) | 4 (≈ 6.56 µM) | 8 (≈ 13.1 µM) | 2 (≈ 3.28 µM) |  |  |  |  |  | C[C@@H](NC(=O)C(F)F)[C@H]1C(=O)N2C(C(=O)O)=C(S[C@@H]3CN[C@H](C(=O)N4C[C@@H](N)C[C@H]4CNS(N)(=O)=O)C3)[C@H](C)[C@H]12 [Example 212] |
| 1 (≈ 1.93 µM) | 0.5 (≈ 0.966 µM) | 4 (≈ 7.73 µM) | 8 (≈ 15.5 µM) | 2 (≈ 3.86 µM) |  |  |  |  |  | C[C@@H](NC(=O)C(F)F)[C@H]1C(=O)N2C(C(=O)O)=C(S[C@@H]3CN[C@H](C(=O)N4C[C@@H](O)[C@@H](N)C4)C3)[C@H](C)[C@H]12 [Example 213] |
| 32 (≈ 64.3 µM) | 4 (≈ 8.04 µM) | 16 (≈ 32.2 µM) | > 128 | 32 (≈ 64.3 µM) |  |  |  |  |  | CNCC(=O)N[C@H](C)[C@H]1C(=O)N2C(C(=O)O)=C(S[C@@H]3CN[C@H](C(=O)N4CC[C@H](F)C4)C3)[C@H](C)[C@H]12 [Example 214] |
| 8 (≈ 16.1 µM) | 2 (≈ 4.02 µM) | 8 (≈ 16.1 µM) | > 128 | 32 (≈ 64.3 µM) |  |  |  |  |  | CNCC(=O)N[C@H](C)[C@H]1C(=O)N2C(C(=O)O)=C(S[C@@H]3CN[C@H](C(=O)N4CC[C@@H](F)C4)C3)[C@H](C)[C@H]12 [Example 215] |
| 32 (≈ 53.1 µM) | 1 (≈ 1.66 µM) | 4 (≈ 6.64 µM) | 4 (≈ 6.64 µM) | 16 (≈ 26.5 µM) |  |  |  |  |  | CNCC(=O)N[C@H](C)[C@H]1C(=O)N2C(C(=O)O)=C(S[C@@H]3CN[C@H](C(=O)N4C[C@@H](N)C[C@H]4CNS(N)(=O)=O)C3)[C@H](C)[C@H]12 [Example 216] |
| 16 (≈ 31.2 µM) | 0.5 (≈ 0.975 µM) | 1 (≈ 1.95 µM) | 2 (≈ 3.9 µM) | 1 (≈ 1.95 µM) |  |  |  |  |  | CNCC(=O)N[C@H](C)[C@H]1C(=O)N2C(C(=O)O)=C(S[C@@H]3CN[C@H](C(=O)N4C[C@H](N)[C@@H](F)C4)C3)[C@H](C)[C@H]12 [Example 217] |
| 16 (≈ 31.3 µM) | 1 (≈ 1.96 µM) | 2 (≈ 3.92 µM) | 2 (≈ 3.92 µM) | 2 (≈ 3.92 µM) |  |  |  |  |  | CNCC(=O)N[C@H](C)[C@H]1C(=O)N2C(C(=O)O)=C(S[C@@H]3CN[C@H](C(=O)N4C[C@@H](O)[C@@H](N)C4)C3)[C@H](C)[C@H]12 [Example 218] |
